The source of these data is ChEMBL document CHEMBL4811298, “Discovery of novel class of histone deacetylase inhibitors as potential anticancer agents” (Bioorg Med Chem, 2021).

As a reminder, the IC50 is the concentration at which inhibition is half-maximal. One may read the half-life as the time needed for the level to fall by half in the phase considered.

Calls of active or inactive are those of the source. Some results are limits rather than exact numbers.

Data set [1] has as its target Histone deacetylase (Homo sapiens) (UniProt Q13547+O15379+Q9UBN7+Q92769+Q9UQL6+Q8WUI4+Q9BY41+Q96DB2+P56524+Q9UKV0+Q969S8). Nature of the data set: Inhibition of HDAC in human MCF7 cells assessed as increase in acetylated histone H4 mRNA level at 3 uM incubated for 24 hrs by whole transcriptome analysis. The data set is classed as cell-based.
Data set [2] is filed under the species Homo sapiens. Nature of the data set: Selectivity ratio of IC50 for inhibition of C-terminal His-tagged human HDAC9 (604 to 1066 residues) expressed in baculovirus-infected Sf9 cells to IC50 for inhibition of C-terminal FLAG/His-tagged human recombinant HDAC1 (1 to 482 residues) expressed in baculovirus-infected Sf9 cells.
A further data set addresses Histone deacetylase 9 (Homo sapiens, UniProt Q9UKV0). Put plainly: Inhibition of C-terminal His-tagged human HDAC9 (604 to 1066 residues) expressed in baculovirus-infected Sf9 cells assessed as reduction in 7-amino-4-methylcoumarin release measured every 5 mins by fluorescence based analysis.
A short description of data set [3]: Half life in CD-1 mouse liver microsomes at 1 uM measured after 60 mins in presence of NADPH by LC-MS/MS analysis. In kind it is ADME, Microsome.
The species named for data set [4] is Homo sapiens. Nature of the data set: Selectivity ratio of IC50 for inhibition of N-terminal GST-tagged human recombinant full length HDAC5 expressed in baculovirus-infected Sf9 cells to IC50 for inhibition of C-terminal FLAG/His-tagged human recombinant HDAC1 (1 to 482 residues) expressed in baculovirus-infected Sf9 cells.
For data set [5], the target named is Histone deacetylase 3/Nuclear receptor corepressor 2 (HDAC3/NCoR2) (Homo sapiens, UniProt O15379). Put plainly: Inhibition of C-terminal His-tagged human recombinant full length HDAC3 (1 to 428 residues)/N-terminal GST-tagged human recombinant NCOR2 (395 to 489 residues) expressed in baculovirus-infected Sf9 cells assessed as reduction in 7-amino-4-methylcoumarin release using fluorogenic HDAC substrate 3 measured every 5 mins by fluorescence based analysis.

The species entered for data set [6] is Homo sapiens. Nature of the data set: Selectivity ratio of IC50 for inhibition of N-terminal GST-tagged human HDAC7 (518 to end residues) expressed in baculovirus-infected Sf9 cells to IC50 for inhibition of C-terminal 6XHis-tagged human recombinant full length HDAC2 (1 to 488 residues) expressed in baculovirus-infected Sf9 cells.
Data set [7] in a line: Metabolic stability of the compound in CD-1 mouse liver microsomes assessed as parent compound remaining at 1 uM measured after 60 mins in absence of NADPH by LC-MS/MS analysis. As to conditions: read-out: Stabilty. The data set is classed as ADME, Microsome.
The next data set concerns the target Histone deacetylase 4 (Homo sapiens, UniProt P56524). Nature of the data set: Inhibition of N-terminal GST-tagged/C-terminal His-tagged human recombinant HDAC4 (627 to 1084 residues) expressed in baculovirus-infected Sf9 cells assessed as reduction in 7-amino-4-methylcoumarin release measured every 5 mins by fluorescence based analysis.
Data set [8] deals with MCF7. Nature of the data set: Induction of cell cycle arrest in human MCF7 cells assessed downregulation of E2F1 gene expression at 3 uM incubated for 24 hrs by whole transcriptome analysis. The data set is classed as functional, cell-based.
The species entered for data set [9] is Homo sapiens. Put plainly: Selectivity ratio of IC50 for inhibition of C-terminal His-tagged human recombinant full length HDAC3 (1 to 428 residues)/N-terminal GST-tagged human recombinant NCOR2 (395 to 489 residues) expressed in baculovirus-infected Sf9 cells to IC50 for inhibition of C-terminal 6XHis-tagged human recombinant full length HDAC2 (1 to 488 residues) expressed in baculovirus-infected Sf9 cells.

A further data set has as its target Cytochrome P450 2D6 (Homo sapiens, UniProt P10635). Put plainly: Inhibition of human CYP2D6 expressed in insect supersomes assessed as reduction in AHMC formation using AMMC as substrate measured after 40 mins in presence of NADPH by fluorescence based analysis. The data set is classed as ADME.
The species entered for data set [10] is Homo sapiens. Nature of the data set: Selectivity ratio of IC50 for inhibition of N-terminal GST-tagged/C-terminal His-tagged human recombinant HDAC4 (627 to 1084 residues) expressed in baculovirus-infected Sf9 cells to IC50 for inhibition of C-terminal FLAG/His-tagged human recombinant HDAC1 (1 to 482 residues) expressed in baculovirus-infected Sf9 cells.

Data set [11] relates to MCF7. Put plainly: Induction of cell cycle arrest in human MCF7 cells assessed as accumulation at subG1 phase at 1 uM incubated for 24 to 72 hrs by PI staining based flow cytometric analysis. The conditions noted are these: time 24-72 hrs. In kind it is functional. (Flow cytometry measures light scatter and fluorescence of single cells or particles in a stream.)
In the next data set the target is Histone deacetylase 5 (Homo sapiens, UniProt Q9UQL6). Put plainly: Inhibition of N-terminal GST-tagged human recombinant full length HDAC5 expressed in baculovirus-infected Sf9 cells assessed as reduction in 7-amino-4-methylcoumarin release measured every 5 mins by fluorescence based analysis.
Data set [12] in a line: Metabolic stability of the compound in human liver microsomes assessed as parent compound remaining at 1 uM measured after 60 mins in absence of NADPH by LC-MS/MS analysis. The conditions noted are these: read-out: Stabilty. The data set is classed as ADME, Microsome. In general terms: Liver microsomes are a subcellular fraction often used to study metabolism.
Another data set has as its target T1, Histone deacetylase 7 (Homo sapiens, UniProt Q8WUI4).
T1 sequence (Q8WUI4 whole entry): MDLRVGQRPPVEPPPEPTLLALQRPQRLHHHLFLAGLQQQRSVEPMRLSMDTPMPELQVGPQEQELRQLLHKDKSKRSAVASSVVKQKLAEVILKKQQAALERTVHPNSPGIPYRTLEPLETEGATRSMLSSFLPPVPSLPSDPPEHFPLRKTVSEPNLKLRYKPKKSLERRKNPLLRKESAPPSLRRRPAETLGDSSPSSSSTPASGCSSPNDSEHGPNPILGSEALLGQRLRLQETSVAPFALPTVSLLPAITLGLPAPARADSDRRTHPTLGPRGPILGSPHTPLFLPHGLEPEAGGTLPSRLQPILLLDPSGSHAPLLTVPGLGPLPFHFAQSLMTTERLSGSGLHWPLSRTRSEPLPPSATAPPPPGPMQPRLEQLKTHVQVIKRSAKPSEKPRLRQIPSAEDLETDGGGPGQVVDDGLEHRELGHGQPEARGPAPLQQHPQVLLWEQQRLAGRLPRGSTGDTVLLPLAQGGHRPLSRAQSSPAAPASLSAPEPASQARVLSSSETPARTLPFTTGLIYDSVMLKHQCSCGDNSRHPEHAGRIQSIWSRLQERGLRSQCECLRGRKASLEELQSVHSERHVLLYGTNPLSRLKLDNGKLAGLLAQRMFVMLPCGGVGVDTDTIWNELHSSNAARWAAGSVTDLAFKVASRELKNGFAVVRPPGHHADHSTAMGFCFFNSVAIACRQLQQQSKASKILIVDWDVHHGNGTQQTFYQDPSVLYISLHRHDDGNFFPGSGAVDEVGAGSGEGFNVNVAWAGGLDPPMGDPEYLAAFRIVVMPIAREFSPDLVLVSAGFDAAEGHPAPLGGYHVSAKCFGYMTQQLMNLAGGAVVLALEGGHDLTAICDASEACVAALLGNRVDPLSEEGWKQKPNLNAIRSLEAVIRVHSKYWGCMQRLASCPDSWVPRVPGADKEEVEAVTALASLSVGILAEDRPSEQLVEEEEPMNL
Nature of the data set: Inhibition of N-terminal GST-tagged human HDAC7 (518 to end residues) expressed in baculovirus-infected Sf9 cells assessed as reduction in 7-amino-4-methylcoumarin release measured every 5 mins by fluorescence based analysis.

Histone deacetylase 9, sequence (Q9UKV0 whole entry, the tested form may be a part): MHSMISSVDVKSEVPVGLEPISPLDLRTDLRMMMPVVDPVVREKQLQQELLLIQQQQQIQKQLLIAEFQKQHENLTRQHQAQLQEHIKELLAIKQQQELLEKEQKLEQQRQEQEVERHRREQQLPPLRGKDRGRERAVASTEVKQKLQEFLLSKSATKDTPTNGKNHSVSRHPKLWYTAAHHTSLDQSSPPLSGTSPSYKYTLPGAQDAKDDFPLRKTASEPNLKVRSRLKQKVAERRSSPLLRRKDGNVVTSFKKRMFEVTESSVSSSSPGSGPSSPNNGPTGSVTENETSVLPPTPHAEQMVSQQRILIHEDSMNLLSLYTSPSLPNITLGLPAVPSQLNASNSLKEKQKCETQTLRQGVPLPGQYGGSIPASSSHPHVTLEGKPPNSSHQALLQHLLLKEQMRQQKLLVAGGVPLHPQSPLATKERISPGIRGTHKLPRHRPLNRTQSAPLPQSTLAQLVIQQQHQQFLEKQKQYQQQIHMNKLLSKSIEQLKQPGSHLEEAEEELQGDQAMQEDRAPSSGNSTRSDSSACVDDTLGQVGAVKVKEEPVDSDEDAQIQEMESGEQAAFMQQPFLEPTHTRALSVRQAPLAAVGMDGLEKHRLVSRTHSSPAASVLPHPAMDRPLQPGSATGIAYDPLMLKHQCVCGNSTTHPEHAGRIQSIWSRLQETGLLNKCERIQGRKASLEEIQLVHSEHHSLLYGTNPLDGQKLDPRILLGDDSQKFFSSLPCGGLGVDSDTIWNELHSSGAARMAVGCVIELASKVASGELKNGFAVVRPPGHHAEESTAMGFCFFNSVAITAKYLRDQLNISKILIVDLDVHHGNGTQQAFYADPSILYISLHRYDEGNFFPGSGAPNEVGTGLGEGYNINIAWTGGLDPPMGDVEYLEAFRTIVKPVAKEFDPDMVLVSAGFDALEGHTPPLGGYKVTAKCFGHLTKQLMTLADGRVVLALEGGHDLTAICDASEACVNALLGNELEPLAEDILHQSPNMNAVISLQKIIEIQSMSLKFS
Histone deacetylase 3/Nuclear receptor corepressor 2 (HDAC3/NCoR2), sequence (O15379 whole entry, the tested form may be a part): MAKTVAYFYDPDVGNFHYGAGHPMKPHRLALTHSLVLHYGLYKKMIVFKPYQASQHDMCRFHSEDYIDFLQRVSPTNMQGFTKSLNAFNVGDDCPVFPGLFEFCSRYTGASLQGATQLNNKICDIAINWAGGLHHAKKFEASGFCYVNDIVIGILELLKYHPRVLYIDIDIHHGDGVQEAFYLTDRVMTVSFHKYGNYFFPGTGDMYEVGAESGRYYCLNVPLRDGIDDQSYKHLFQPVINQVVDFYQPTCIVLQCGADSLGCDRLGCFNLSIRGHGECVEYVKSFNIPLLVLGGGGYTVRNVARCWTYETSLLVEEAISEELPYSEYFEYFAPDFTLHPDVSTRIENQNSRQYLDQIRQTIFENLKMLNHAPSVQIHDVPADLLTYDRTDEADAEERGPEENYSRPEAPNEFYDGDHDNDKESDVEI
Histone deacetylase 3/Nuclear receptor corepressor 2 (HDAC3/NCoR2), sequence (Q9Y618 whole entry, further chain, the tested form may be a part): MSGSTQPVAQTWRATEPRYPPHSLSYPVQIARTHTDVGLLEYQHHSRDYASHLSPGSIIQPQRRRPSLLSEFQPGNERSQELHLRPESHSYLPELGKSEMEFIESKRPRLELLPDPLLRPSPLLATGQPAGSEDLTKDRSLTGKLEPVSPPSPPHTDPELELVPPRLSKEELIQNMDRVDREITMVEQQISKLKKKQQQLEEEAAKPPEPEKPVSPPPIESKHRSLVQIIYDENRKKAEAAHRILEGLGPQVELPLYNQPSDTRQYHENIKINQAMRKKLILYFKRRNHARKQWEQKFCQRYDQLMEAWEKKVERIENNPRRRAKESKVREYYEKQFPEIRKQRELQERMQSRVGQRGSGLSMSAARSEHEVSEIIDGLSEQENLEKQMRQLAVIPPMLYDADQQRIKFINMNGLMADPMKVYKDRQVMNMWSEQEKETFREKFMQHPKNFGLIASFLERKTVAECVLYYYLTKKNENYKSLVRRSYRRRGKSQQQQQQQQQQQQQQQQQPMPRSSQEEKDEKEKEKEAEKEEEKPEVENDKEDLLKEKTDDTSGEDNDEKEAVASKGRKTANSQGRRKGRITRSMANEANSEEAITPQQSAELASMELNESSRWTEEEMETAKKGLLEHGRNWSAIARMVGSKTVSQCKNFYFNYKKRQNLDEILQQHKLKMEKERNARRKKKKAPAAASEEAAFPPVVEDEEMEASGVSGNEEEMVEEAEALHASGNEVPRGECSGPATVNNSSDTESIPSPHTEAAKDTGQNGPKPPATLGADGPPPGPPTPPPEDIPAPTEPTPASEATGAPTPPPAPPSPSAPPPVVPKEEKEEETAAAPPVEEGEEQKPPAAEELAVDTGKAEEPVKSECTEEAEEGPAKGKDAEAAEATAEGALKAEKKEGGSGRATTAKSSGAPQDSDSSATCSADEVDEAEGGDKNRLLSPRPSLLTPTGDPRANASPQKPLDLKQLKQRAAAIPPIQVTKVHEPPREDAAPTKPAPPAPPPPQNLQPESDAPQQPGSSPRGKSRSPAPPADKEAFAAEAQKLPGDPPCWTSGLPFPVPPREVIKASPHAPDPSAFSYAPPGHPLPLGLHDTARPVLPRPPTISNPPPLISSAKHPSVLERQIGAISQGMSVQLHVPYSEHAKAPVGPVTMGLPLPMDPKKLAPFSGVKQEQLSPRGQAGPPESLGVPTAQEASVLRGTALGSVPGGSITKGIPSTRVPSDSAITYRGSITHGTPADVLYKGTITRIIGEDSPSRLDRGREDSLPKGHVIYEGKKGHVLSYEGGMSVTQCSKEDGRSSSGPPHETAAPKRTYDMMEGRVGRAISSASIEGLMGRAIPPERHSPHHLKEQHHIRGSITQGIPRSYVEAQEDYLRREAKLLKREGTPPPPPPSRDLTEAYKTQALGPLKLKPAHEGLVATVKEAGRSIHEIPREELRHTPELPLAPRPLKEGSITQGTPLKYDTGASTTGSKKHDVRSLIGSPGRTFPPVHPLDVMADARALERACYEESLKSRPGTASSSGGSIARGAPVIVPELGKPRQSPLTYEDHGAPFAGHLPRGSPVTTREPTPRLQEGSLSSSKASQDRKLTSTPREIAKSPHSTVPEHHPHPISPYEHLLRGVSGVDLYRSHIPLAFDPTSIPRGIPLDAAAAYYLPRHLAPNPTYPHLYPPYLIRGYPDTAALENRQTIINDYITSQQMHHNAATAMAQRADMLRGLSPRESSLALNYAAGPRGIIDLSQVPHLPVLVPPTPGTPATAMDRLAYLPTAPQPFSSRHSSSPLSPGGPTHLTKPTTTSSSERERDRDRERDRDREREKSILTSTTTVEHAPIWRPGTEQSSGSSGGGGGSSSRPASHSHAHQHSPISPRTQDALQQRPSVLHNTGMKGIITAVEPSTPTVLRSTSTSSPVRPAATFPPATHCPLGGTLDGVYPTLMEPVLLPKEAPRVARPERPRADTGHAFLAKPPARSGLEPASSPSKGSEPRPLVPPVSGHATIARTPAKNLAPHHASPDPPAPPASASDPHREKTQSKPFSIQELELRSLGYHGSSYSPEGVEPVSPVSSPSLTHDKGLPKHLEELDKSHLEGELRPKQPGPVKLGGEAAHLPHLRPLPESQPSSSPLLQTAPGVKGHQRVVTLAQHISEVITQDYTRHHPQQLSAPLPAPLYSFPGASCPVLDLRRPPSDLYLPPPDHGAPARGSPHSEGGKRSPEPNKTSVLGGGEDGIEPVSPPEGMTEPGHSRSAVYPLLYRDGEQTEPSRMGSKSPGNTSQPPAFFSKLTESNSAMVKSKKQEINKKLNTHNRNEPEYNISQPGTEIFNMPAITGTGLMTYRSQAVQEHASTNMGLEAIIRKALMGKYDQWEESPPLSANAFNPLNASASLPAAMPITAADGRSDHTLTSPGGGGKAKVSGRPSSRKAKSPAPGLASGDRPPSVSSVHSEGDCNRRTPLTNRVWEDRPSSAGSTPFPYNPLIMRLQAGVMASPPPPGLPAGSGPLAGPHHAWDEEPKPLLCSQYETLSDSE
Histone deacetylase 4, sequence (P56524 whole entry, the tested form may be a part): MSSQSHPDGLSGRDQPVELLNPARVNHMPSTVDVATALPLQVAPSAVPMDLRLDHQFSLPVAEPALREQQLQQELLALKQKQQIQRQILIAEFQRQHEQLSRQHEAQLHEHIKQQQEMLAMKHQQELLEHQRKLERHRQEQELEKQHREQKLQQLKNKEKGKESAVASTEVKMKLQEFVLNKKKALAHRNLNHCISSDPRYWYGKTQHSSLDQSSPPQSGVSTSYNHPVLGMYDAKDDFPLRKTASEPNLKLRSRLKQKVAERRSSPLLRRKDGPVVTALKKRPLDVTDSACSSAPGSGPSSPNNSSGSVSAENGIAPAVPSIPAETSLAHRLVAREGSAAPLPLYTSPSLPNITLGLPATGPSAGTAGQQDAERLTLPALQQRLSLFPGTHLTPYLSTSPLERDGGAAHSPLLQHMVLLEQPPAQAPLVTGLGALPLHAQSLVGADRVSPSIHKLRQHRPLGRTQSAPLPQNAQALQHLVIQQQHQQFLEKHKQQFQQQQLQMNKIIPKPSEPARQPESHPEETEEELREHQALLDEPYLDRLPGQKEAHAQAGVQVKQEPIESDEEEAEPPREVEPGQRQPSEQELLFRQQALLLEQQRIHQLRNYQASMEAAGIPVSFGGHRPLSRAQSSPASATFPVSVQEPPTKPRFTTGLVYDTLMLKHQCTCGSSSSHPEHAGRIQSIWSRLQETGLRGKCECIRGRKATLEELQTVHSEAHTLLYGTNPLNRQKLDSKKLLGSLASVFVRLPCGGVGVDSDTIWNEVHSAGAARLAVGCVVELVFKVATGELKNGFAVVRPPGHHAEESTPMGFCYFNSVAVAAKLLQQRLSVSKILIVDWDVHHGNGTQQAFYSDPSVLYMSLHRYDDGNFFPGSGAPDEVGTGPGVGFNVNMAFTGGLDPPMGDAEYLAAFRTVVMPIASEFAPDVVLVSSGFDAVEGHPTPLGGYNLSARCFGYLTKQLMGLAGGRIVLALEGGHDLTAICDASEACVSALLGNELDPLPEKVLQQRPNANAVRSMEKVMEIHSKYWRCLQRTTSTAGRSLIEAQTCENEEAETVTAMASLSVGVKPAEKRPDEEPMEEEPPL

`N=C(NO)c1ccc2nc(-c3cccc(-c4cn5ccccc5n4)c3)[nH]c2c1`: the inhibition result in data set [1] is “Active”. Also, the Ratio IC50 in the data set listed under Homo sapiens [2], in the data set filed under Homo sapiens [4], in the data set listed under Homo sapiens [6], in the data set filed under Homo sapiens [9] and in the data set listed under Homo sapiens [10] was above 44 in each case. For the same molecule, the IC50 (on Histone deacetylase 9; in data set [5]; on Histone deacetylase 4; at Cytochrome P450 2D6; on Histone deacetylase 5; on Histone deacetylase 7) was above 10 µM in each case. Besides, in [3], the half-life at 1 µM stood at 17.6 min. The remaining at 1 h, 1 µM in data set [7] was determined as 94%; in [12] it was 99%. For the same molecule, the outcome with MCF7 [8] and in the data set on MCF7 [11] was Active.
